Results: US20250368634A1, “PHENYL AMIDE COMPOUNDS AND METHODS OF USE” (SCHRÖDINGER, INC., priority 2022, published 2025)

Target: SOS1-KRas (G12C) (Homo sapiens (Human), UniProt Q07889)
Experiment: SOS1-KRas (G12C) FRET Assay
Type: binding
Conditions: not given

Chain of SOS1-KRas (G12C) (Q07889 564-1049, stated change not applied): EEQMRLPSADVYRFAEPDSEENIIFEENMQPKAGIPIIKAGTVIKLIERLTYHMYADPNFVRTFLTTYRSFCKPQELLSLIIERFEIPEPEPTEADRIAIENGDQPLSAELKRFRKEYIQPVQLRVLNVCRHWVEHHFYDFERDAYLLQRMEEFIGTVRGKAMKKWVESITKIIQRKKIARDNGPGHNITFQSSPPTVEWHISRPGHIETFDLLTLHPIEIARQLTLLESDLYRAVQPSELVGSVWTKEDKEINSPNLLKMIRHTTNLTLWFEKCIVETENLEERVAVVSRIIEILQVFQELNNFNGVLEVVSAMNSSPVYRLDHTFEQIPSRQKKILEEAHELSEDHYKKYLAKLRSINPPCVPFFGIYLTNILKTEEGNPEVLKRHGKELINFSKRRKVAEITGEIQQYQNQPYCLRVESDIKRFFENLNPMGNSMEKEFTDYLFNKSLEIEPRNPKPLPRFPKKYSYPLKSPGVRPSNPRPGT

Compound	IC50 [nM]
C[C@@H](NC(=O)c1cc(N2CCn3nccc3C2)c(F)cc1NC1CCN(C)CC1)c1cccc(C(F)F)c1F [Example 7, (R)—N-(1-(3-(difluoromethyl)-2-fluorophenyl)ethyl)-5-(6,7-dihydropyrazolo[1,5-a]pyrazin-5 (4H)-yl)-4-fluoro-2-((1-methylpiperidin-4-yl)amino)benzamide]	27.9
C[C@@H](NC(=O)c1cc(N2CCOCC2)c(F)cc1N[C@@H]1CN2CCC1CC2)c1cccc(C(F)F)c1F [Example 16, N—((R)-1-(3-(difluoromethyl)-2-fluorophenyl)ethyl)-4-fluoro-5-morpholino-2-(((S)-quinuclidin-3-yl)amino)benzamide]	41.6
C[C@@H]1CC(F)(F)CN1c1cc(C(=O)N[C@H](C)c2cccc(C(F)F)c2F)c(NC2CCN(C)CC2)cc1F (single isomer, unassigned) [Example 36]	97.5
C[C@@H](NC(=O)c1cc(O[C@@H]2CCOC2)c(F)cc1NC1CCN(C)CC1)c1cccc(C(F)F)c1F [Example 9, N—((R)-1-(3-(difluoromethyl)-2-fluorophenyl)ethyl)-4-fluoro-2-((1-methylpiperidin-4-yl)amino)-5-(((R)-tetrahydrofuran-3-yl)oxy)benzamide]	94
C[C@@H](NC(=O)c1cc(-c2ccncc2)c(F)cc1N[C@@H]1CN2CCC1CC2)c1cccc(C(F)F)c1F (single isomer, unassigned) [Example 59]	25.7
C[C@@H](NC(=O)c1cc(N2CCOCC2)c(F)cc1N[C@H]1CN2CCC1CC2)c1cccc(C(F)F)c1F [Example 15, N—((R)-1-(3-(difluoromethyl)-2-fluorophenyl)ethyl)-4-fluoro-5-morpholino-2-(((R)-quinuclidin-3-yl)amino)benzamide]	12.9

Same assay, conditions: inhibition of SOS1:KRAS interaction; 0.5 nM His10-SOS1 (res. 564-1049), 2.5 nM GST-KRAS (res. 1-169, G12C); 2 hrs at RT

IC50 [nM]	Compound
240	C[C@@H](NC(=O)c1cc(C(=O)N2CCOCC2)c(F)cc1NC1CCN(C)CC1)c1cccc(C(F)F)c1F [Example 77, (R)—N-(1-(3-(difluoromethyl)-2-fluorophenyl)ethyl)-4-fluoro-2-((1-methylpiperidin-4-yl)amino)-5-(morpholine-4-carbonyl)benzamide]
6.9	C[C@@H](NC(=O)c1cc(-c2ccnnc2)c(F)cc1NC1CCN(C)CC1)c1cccc(C(F)F)c1F [Example 65, (R)-N-(1-(3-(difluoromethyl)-2-fluorophenyl)ethyl)-4-fluoro-2-((1-methylpiperidin-4-yl)amino)-5-(pyridazin-4-yl)benzamide]
874	CC(C)NC(=O)c1cc(C(=O)N[C@H](C)c2cccc(C(F)F)c2F)c(NC2CCN(C)CC2)cc1F [Example 76, (R)—N1-(1-(3-(difluoromethyl)-2-fluorophenyl)ethyl)-4-fluoro-N3-isopropyl-6-((1-methylpiperidin-4-yl)amino)isophthalamide]
64.8	C[C@@H](NC(=O)c1cc(N2CCOCC2)c(F)cc1NC(C)(C)CN(C)C)c1cccc(C(F)F)c1F [Example 52, (R)—N-(1-(3-(difluoromethyl)-2-fluorophenyl)ethyl)-2-((1-(dimethylamino)-2-methylpropan-2-yl)amino)-4-fluoro-5-morpholinobenzamide]
333	C[C@@H](NC(=O)c1cc(N2CCOCC2)c(F)cc1NC(C)(C)C#N)c1cccc(C(F)F)c1F [Example 51, (R)-2-((2-cyanopropan-2-yl)amino)-N-(1-(3-(difluoromethyl)-2-fluorophenyl)ethyl)-4-fluoro-5-morpholinobenzamide]
130	Cc1c([C@@H](C)NC(=O)c2cc(-c3cnoc3)c(F)cc2NC2CCN(C)CC2)cccc1C(F)(F)F [Example 61, (R)-4-fluoro-5-(isoxazol-4-yl)-N-(1-(2-methyl-3-(trifluoromethyl)phenyl)ethyl)-2-((1-methylpiperidin-4-yl)amino)benzamide]
9.8	C[C@@H](NC(=O)c1cc(-c2ccncc2)c(F)cc1NC1CCN(C)CC1)c1cccc(C(F)F)c1F [Example 57, (R)—N-(1-(3-(difluoromethyl)-2-fluorophenyl)ethyl)-4-fluoro-2-((1-methylpiperidin-4-yl)amino)-5-(pyridin-4-yl)benzamide]
34.8	Cc1c([C@@H](C)NC(=O)c2cc(-c3ccncc3)c(F)cc2NC2CCN(C)CC2)cccc1C(F)(F)F [Example 56, (R)-4-fluoro-N-(1-(2-methyl-3-(trifluoromethyl)phenyl)ethyl)-2-((1-methylpiperidin-4-yl)amino)-5-(pyridin-4-yl)benzamide]
8.3	Cc1cc(-c2cc(C(=O)N[C@H](C)c3cccc(C(F)F)c3F)c(NC3CCN(C)CC3)cc2F)ccn1 [Example 64, (R)-N-(1-(3-(difluoromethyl)-2-fluorophenyl)ethyl)-4-fluoro-2-((1-methylpiperidin-4-yl)amino)-5-(2-methylpyridin-4-yl)benzamide]
39.1	C[C@@H](NC(=O)c1cc(N2CCOCC2)c(C(F)F)cc1NC1CCN(C)CC1)c1cccc(C(F)F)c1F [Example 79, (R)-4-(difluoromethyl)-N-(1-(3-(difluoromethyl)-2-fluorophenyl)ethyl)-2-((1-methylpiperidin-4-yl)amino)-5-morpholinobenzamide]
14.9	C[C@@H](NC(=O)c1cc(-c2ccncc2F)c(F)cc1NC1CCN(C)CC1)c1cccc(C(F)F)c1F [Example 63, (R)-N-(1-(3-(difluoromethyl)-2-fluorophenyl)ethyl)-4-fluoro-5-(3-fluoropyridin-4-yl)-2-((1-methylpiperidin-4-yl)amino)benzamide]
63.8	C[C@@H](NC(=O)c1cc(N2CCOCC2)c(F)cc1NCCN(C)C)c1cccc(C(F)F)c1F [Example 48, (R)—N-(1-(3-(difluoromethyl)-2-fluorophenyl)ethyl)-2-((2-(dimethylamino)ethyl)amino)-4-fluoro-5-morpholinobenzamide]
199	C[C@@H](CN(C)C)Nc1cc(F)c(N2CCOCC2)cc1C(=O)N[C@H](C)c1cccc(C(F)F)c1F (single isomer, unassigned) [Example 50]

Second part, the compound before the results:

Compound	IC50 [nM]
C[C@@H](NC(=O)c1cc(N2CCC(F)(F)C2)c(F)cc1N[C@H]1CN2CCC1CC2)c1cccc(C(F)F)c1F [Example 27, N—((R)-1-(3-(difluoromethyl)-2-fluorophenyl)ethyl)-5-(3,3-difluoropyrrolidin-1-yl)-4-fluoro-2-(((R)-quinuclidin-3-yl)amino)benzamide]	22.5
Cc1c([C@@H](C)NC(=O)c2cc(N3CCOCC3)c(Cl)cc2NC2CCN(C)CC2)cccc1C(F)(F)F [Example 13, (R)-4-chloro-N-(1-(2-methyl-3-(trifluoromethyl)phenyl)ethyl)-2-((1-methylpiperidin-4-yl)amino)-5-morpholinobenzamide]	67.2
C[C@@H](NC(=O)c1cc(N2CCCC2)c(F)cc1N[C@@H]1CN2CCC1CC2)c1cccc(C(F)F)c1F [Example 32, N—((R)-1-(3-(difluoromethyl)-2-fluorophenyl)ethyl)-4-fluoro-5-(pyrrolidin-1-yl)-2-(((S)-quinuclidin-3-yl)amino)benzamide]	133
Cc1c([C@@H](C)NC(=O)c2cc(N3CCOCC3)ccc2NC2CCN(C)CC2)cccc1C(F)(F)F [Example 23, (R)—N-(1-(2-methyl-3-(trifluoromethyl)phenyl)ethyl)-2-((1-methylpiperidin-4-yl)amino)-5-morpholinobenzamide]	358
C[C@@H](NC(=O)c1cc(N2CCOCC2)c(F)cc1NCCN)c1cccc(C(F)F)c1F [Example 47, (R)-2-((2-aminoethyl)amino)-N-(1-(3-(difluoromethyl)-2-fluorophenyl)ethyl)-4-fluoro-5-morpholinobenzamide]	33.7
C[C@@H](NC(=O)c1cc(N2CCC2)c(F)cc1N[C@H]1CN2CCC1CC2)c1cccc(C(F)F)c1F [Example 29, 5-(azetidin-1-yl)-N—((R)-1-(3-(difluoromethyl)-2-fluorophenyl)ethyl)-4-fluoro-2-(((R)-quinuclidin-3-yl)amino)benzamide]	205
C[C@@H](NC(=O)c1cc(N2CC3CCCC(C2)O3)c(F)cc1NC1CCN(C)CC1)c1cccc(C(F)F)c1F [Example 41, 5-(9-oxa-3-azabicyclo[3.3.1]nonan-3-yl)-N-((R)-1-(3-(difluoromethyl)-2-fluorophenyl)ethyl)-4-fluoro-2-((1-methylpiperidin-4-yl)amino)benzamide]	33.3
C[C@@H](NC(=O)c1cc(C23CC(C2)C3)c(F)cc1N[C@@H]1CN2CCC1CC2)c1cccc(C(F)F)c1F [Example 70, 5-(bicyclo[1.1.1]pentan-1-yl)-N—((R)-1-(3-(difluoromethyl)-2-fluorophenyl)ethyl)-4-fluoro-2-(((S)-quinuclidin-3-yl)amino)benzamide]	347
Cc1c(C#N)cccc1[C@@H](C)NC(=O)c1cc(N2CCOCC2)c(F)cc1N[C@H]1CN2CCC1CC2 [Example 45, N—((R)-1-(3-cyano-2-methylphenyl)ethyl)-4-fluoro-5-morpholino-2-(((R)-quinuclidin-3-yl)amino)benzamide]	69.2
C[C@@H](NC(=O)c1cc(N2CC[C@]3(CCOC3)C2)c(F)cc1NC1CCN(C)CC1)c1cccc(C(F)F)c1F (single isomer, unassigned) [Example 31]	40.4
C[C@@H](NC(=O)c1cc(N2CCOCC2)c(F)cc1N[C@H]1CN2CCC1CC2)c1cccc(C(C)(F)F)c1F [Example 43, N—((R)-1-(3-(1,1-difluoroethyl)-2-fluorophenyl)ethyl)-4-fluoro-5-morpholino-2-(((R)-quinuclidin-3-yl)amino)benzamide]	15.1
Cc1c([C@@H](C)NC(=O)c2cc(N3CCOCC3)c(F)cc2NC2CCN(C)CC2)cccc1C(F)(F)F [Example 3, (R)-4-fluoro-N-(1-(2-methyl-3-(trifluoromethyl)phenyl)ethyl)-2-((1-methylpiperidin-4-yl)amino)-5-morpholinobenzamide]	56.9
Cc1c([C@@H](C)NC(=O)c2cc(C3CCOCC3)c(F)cc2NC2CCN(C)CC2)cccc1C(F)(F)F [Example 21, (R)-4-fluoro-N-(1-(2-methyl-3-(trifluoromethyl)phenyl)ethyl)-2-((1-methylpiperidin-4-yl)amino)-5-(tetrahydro-2H-pyran-4-yl)benzamide]	225
